The record followed here is PubChem BioAssay AID256 (DTP/NCI, 2004).

The test system of the test is CD2F1 mice, L1210 leukemia ip, survival T/C. Briefly: NCI In Vivo Anticancer Drug Screen. Data for tumor model L1210 Leukemia (intraperitoneal) in CD2F1 (CDF1) mice. As to conditions: higher = longer survival. A digest of the protocol: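 Compound-dosed mice with transplantable tumor versus matched vehicle controls; endpoint ratio T/C reported.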
[1] abbreviates: endpoint: mean survival time, dose: 100.0 mg/kg/injection, schedule: Q04DX003 (ip), vehicle: saline.
Where [2] appears, read: endpoint: mean survival time, dose: 200.0 mg/kg/injection, schedule: Q04DX003 (ip), vehicle: saline.
[3] abbreviates: endpoint: mean survival time, dose: 400.0 mg/kg/injection, schedule: Q04DX003 (ip), vehicle: saline.
The mark [4] stands for this setting: endpoint: mean survival time, dose: 50.0 mg/kg/injection, schedule: Q01DX009 (ip), vehicle: saline with Tween-80.
The mark [5] stands for this setting: endpoint: mean survival time, dose: 100.0 mg/kg/injection, schedule: Q01DX009 (ip), vehicle: saline with Tween-80.
Where [6] appears, read: endpoint: mean survival time, dose: 100.0 mg/kg/injection, schedule: Q04DX003 (ip), vehicle: saline with Tween-80.
Where [7] appears, read: endpoint: mean survival time, dose: 200.0 mg/kg/injection, schedule: Q04DX003 (ip), vehicle: saline with Tween-80.
Setting [8] is: endpoint: mean survival time, dose: 400.0 mg/kg/injection, schedule: Q04DX003 (ip), vehicle: saline with Tween-80.
The mark [9] stands for this setting: endpoint: mean survival time, dose: 25.0 mg/kg/injection, schedule: Q04DX002 (ip), vehicle: saline with Tween-80.
The mark [10] stands for this setting: endpoint: mean survival time, dose: 50.0 mg/kg/injection, schedule: Q04DX002 (ip), vehicle: saline with Tween-80.
Where [11] appears, read: endpoint: mean survival time, dose: 100.0 mg/kg/injection, schedule: Q04DX002 (ip), vehicle: saline with Tween-80.
[12] abbreviates: endpoint: mean survival time, dose: 200.0 mg/kg/injection, schedule: Q01DX009 (ip), vehicle: saline with Tween-80.

Where “and” joins values, the source holds several entries; their conditions need not be identical. Equal entries are not always repeated. Inconclusive results and toxic doses are left out.

Consider `O=S(=O)(O)c1ccc(-c2nnc(-c3ccccn3)nc2-c2ccc(S(=O)(=O)O)cc2)cc1`, for which the T/C (endpoint: mean survival time, dose: 100.0 mg/kg/injection, schedule: Q01DX009 (ip), vehicle: saline sonified) was 96 % of control; the T/C under setting [1] is 97 % of control; the T/C (endpoint: mean survival time, dose: 200.0 mg/kg/injection, schedule: Q01DX009 (ip), vehicle: saline sonified) is 98 % of control; the T/C under setting [2] was 97 % of control; the T/C (endpoint: mean survival time, dose: 400.0 mg/kg/injection, schedule: Q01DX009 (ip), vehicle: saline sonified) was 94 % of control; the T/C under setting [3] is 92 % of control.
As to `C/C=C\c1ccc(OCCOC(=O)Nc2cc(Cl)c(OC)cc2OC)c(OC)c1`, the T/C runs as follows: under setting [4], 90 % of control; under setting [5], 90 % of control.
In the case of `CCC1(CC)OC2=C(CC(C#N)(C#N)C(C#N)(C#N)C2)O1`, the T/C (endpoint: mean survival time, dose: 5.0 mg/kg/injection, schedule: Q04DX003 (ip), vehicle: other) is 103 % of control; the T/C (endpoint: mean survival time, dose: 10.0 mg/kg/injection, schedule: Q04DX003 (ip), vehicle: other) was 92 % of control; the T/C (endpoint: mean survival time, dose: 20.0 mg/kg/injection, schedule: Q04DX003 (ip), vehicle: other) is 96 % of control.
Take `CC1=CS(=O)(=O)CC(=O)N1`: the T/C is, setting by setting: under setting [6], 103 % of control; under setting [7], 98 % of control; under setting [8], 95 % of control.
Consider `COc1cc(O)c(Cc2ccccc2O)c(O)c1C(=O)CCc1ccccc1`, for which the T/C is 105 % of control (endpoint: mean survival time, dose: 1.25 mg/kg/injection, schedule: Q01DX009 (ip), vehicle: saline with Tween-80); 100 % of control (endpoint: mean survival time, dose: 2.5 mg/kg/injection, schedule: Q01DX009 (ip), vehicle: saline with Tween-80); 97 % of control (endpoint: mean survival time, dose: 5.0 mg/kg/injection, schedule: Q01DX009 (ip), vehicle: saline with Tween-80); 105 % of control (endpoint: mean survival time, dose: 10.0 mg/kg/injection, schedule: Q01DX009 (ip), vehicle: saline with Tween-80); 100 % of control (endpoint: mean survival time, dose: 20.0 mg/kg/injection, schedule: Q01DX009 (ip), vehicle: saline with Tween-80).
Turning to `CCOC(=O)C(C)C(=O)C(C)N1C(=O)c2ccccc2C1=O` (stereo not given), the T/C is 95 % of control (endpoint: mean survival time, dose: 12.5 mg/kg/injection, schedule: Q01DX009 (ip), vehicle: water); 95 % of control (endpoint: mean survival time, dose: 25.0 mg/kg/injection, schedule: Q01DX009 (ip), vehicle: water); 95 % of control (endpoint: mean survival time, dose: 50.0 mg/kg/injection, schedule: Q01DX009 (ip), vehicle: water); 100 % of control (endpoint: mean survival time, dose: 100.0 mg/kg/injection, schedule: Q01DX009 (ip), vehicle: water); 96 % of control (endpoint: mean survival time, dose: 200.0 mg/kg/injection, schedule: Q01DX009 (ip), vehicle: water).
On to `CC1CCSCS1` (stereo not given), for which the T/C (endpoint: mean survival time, dose: 12.5 mg/kg/injection, schedule: Q04DX002 (ip), vehicle: saline with Tween-80) is 97 % of control; the T/C under setting [9] is 102 % of control; the T/C under setting [10] was 102 % of control.
As to `CC(CCOc1ccc(Cl)cc1Cl)C(=O)O` (stereo not given), the T/C by setting is: under setting [11], 104 % of control; (endpoint: mean survival time, dose: 200.0 mg/kg/injection, schedule: Q04DX002 (ip), vehicle: saline with Tween-80) 86 % of control.
Turning to `Cc1ccc(S(=O)(=O)Nc2ccccc2)c(CC(O)(c2ccccc2)c2ccccc2)c1`, the T/C runs as follows: under setting [6], 88 % of control; under setting [7], 88 % of control.
For the compound `NN(C(=O)c1ccccc1)c1ccccc1`, the T/C was 98 % of control under setting [5], 95 % of control under setting [6], 97 % of control under setting [7] and 100 % of control under setting [8].
Regarding `NC(=O)c1cn(C2CC(O)C(CO)O2)c2ncnc(N)c12` (stereo not given), the T/C by setting is: (endpoint: mean survival time, dose: 0.03 mg/kg/injection, schedule: Q01DX009 (ip), vehicle: water) 93 % of control; (endpoint: mean survival time, dose: 0.06 mg/kg/injection, schedule: Q01DX009 (ip), vehicle: water) 93 % of control; (endpoint: mean survival time, dose: 0.13 mg/kg/injection, schedule: Q01DX009 (ip), vehicle: water) 94 % of control; (endpoint: mean survival time, dose: 0.25 mg/kg/injection, schedule: Q01DX009 (ip), vehicle: water) 98 % of control; (endpoint: mean survival time, dose: 0.5 mg/kg/injection, schedule: Q01DX009 (ip), vehicle: water) 102 % of control; (endpoint: mean survival time, dose: 1.0 mg/kg/injection, schedule: Q01DX009 (ip), vehicle: water) 98 % of control. For the same compound, the T/C is, setting by setting: (endpoint: mean survival time, dose: 2.0 mg/kg/injection, schedule: Q01DX009 (ip), vehicle: water) 100 % of control; (endpoint: mean survival time, dose: 4.0 mg/kg/injection, schedule: Q01DX009 (ip), vehicle: water) 104 % of control; (endpoint: mean survival time, dose: 5.0 mg/kg/injection, schedule: Q01DX009 (ip), vehicle: water) 108 % of control; (endpoint: mean survival time, dose: 8.0 mg/kg/injection, schedule: Q01DX009 (ip), vehicle: water) 100 % of control; (endpoint: mean survival time, dose: 10.0 mg/kg/injection, schedule: Q01DX009 (ip), vehicle: water) 99 % of control; (endpoint: mean survival time, dose: 16.0 mg/kg/injection, schedule: Q01DX009 (ip), vehicle: water) 98 % of control. In addition, the T/C reads like this: (endpoint: mean survival time, dose: 20.0 mg/kg/injection, schedule: Q01DX009 (ip), vehicle: water) 104 % of control; (endpoint: mean survival time, dose: 40.0 mg/kg/injection, schedule: Q01DX009 (ip), vehicle: water) 101 % of control; (endpoint: mean survival time, dose: 80.0 mg/kg/injection, schedule: Q01DX009 (ip), vehicle: water) 103 % of control; (endpoint: mean survival time, dose: 160.0 mg/kg/injection, schedule: Q01DX009 (ip), vehicle: water) 104 % of control.
As for `CN(C)S(=O)(=O)C=C(c1ccccc1)c1ccccc1`, the T/C under setting [6] was 107 % of control, the T/C under setting [7] was 96 % of control and the T/C under setting [8] is 94 % of control.
`CCC1(OC(=O)CN2CCN(CCO)CC2)C(=O)OCc2c1cc1n(c2=O)Cc2cc3ccccc3nc2-1` (stereo not given): the T/C by setting is: (endpoint: median survival time, dose: 6.25 mg/kg/injection, schedule: Q04DX002 (ip), vehicle: water) 105 % of control and 108 % of control; (endpoint: median survival time, dose: 12.5 mg/kg/injection, schedule: Q04DX002 (ip), vehicle: water) 108 % of control and 112 % of control; (endpoint: median survival time, dose: 25.0 mg/kg/injection, schedule: Q04DX002 (ip), vehicle: water) 122 % of control and 110 % of control; (endpoint: median survival time, dose: 100.0 mg/kg/injection, schedule: Q04DX002 (ip), vehicle: water) 177 % of control.
With `CS(=O)(=O)N1C(=O)c2ccccc2C1=O`, the T/C under setting [9] is 101 % of control, the T/C under setting [10] was 98 % of control and the T/C under setting [11] was 93 % of control.
`O=CNc1ccc2c(c1)C(Br)c1ccccc1-2` (stereo not given): the T/C reads like this: under setting [5], 93 % of control; under setting [6], 97 % of control; under setting [7], 100 % of control; under setting [8], 88 % of control.
In the case of `COc1cc(OC)c(NC(=O)Nc2ccc(Cl)c(C(F)(F)F)c2)cc1Cl`, the T/C by setting is: under setting [4], 93 % of control; under setting [5], 93 % of control; under setting [12], 93 % of control.
As to `O/N=C1\C=C2C/C(=N/O)C=C2C1`, the T/C under setting [4] was 100 % of control, the T/C under setting [5] is 96 % of control and the T/C under setting [12] was 96 % of control.
In the case of `CC(C)(C)C1CC=CCC1` (stereo not given), the T/C under setting [6] was 98 % of control and the T/C under setting [7] is 98 % of control.
In the case of `COP(=O)(O)c1ccccc1` (tested in a mixture with another compound), the T/C reads like this: under setting [1], 103 % of control; under setting [2], 106 % of control; under setting [3], 95 % of control.
As for `CCOP(=S)(OCC)N1c2ccccc2Sc2ccccc21`, the T/C by setting is: under setting [4], 95 % of control; under setting [5], 90 % of control.
On to `Cc1ccc(-n2c(=S)[nH]c3ccc(C)cc3c2=O)cc1`, for which the T/C (endpoint: mean survival time, dose: 0.38 mg/kg/injection, schedule: Q01DX009 (ip), vehicle: saline with Tween-80) was 90 % of control; the T/C (endpoint: mean survival time, dose: 0.75 mg/kg/injection, schedule: Q01DX009 (ip), vehicle: saline with Tween-80) was 92 % of control; the T/C (endpoint: mean survival time, dose: 1.5 mg/kg/injection, schedule: Q01DX009 (ip), vehicle: saline with Tween-80) is 98 % of control; the T/C (endpoint: mean survival time, dose: 1.56 mg/kg/injection, schedule: Q01DX009 (ip), vehicle: saline with Tween-80) was 95 % of control; the T/C (endpoint: mean survival time, dose: 25.0 mg/kg/injection, schedule: Q04DX003 (ip), vehicle: saline with Tween-80) is 92 % of control; the T/C (endpoint: mean survival time, dose: 50.0 mg/kg/injection, schedule: Q04DX003 (ip), vehicle: saline with Tween-80) is 90 % of control. Further, the T/C under setting [6] was 87 % of control.
